Reference: patent US7700775B2, “Compounds and compositions for delivering active agents” (Emisphere Technologies, Inc., priority 2001, dated 2010)
Structures can show the parent of a compound that is named as a salt.

Assays:
[1] = Oral BIBN4096BS Delivery (plasma BIBN4096BS by LC/MS/MS after oral gavage with delivery agent compound); conditions: previous studies; baseline (no delivery agent stated)
Experimental: Oral gavage (PO) dosing solutions of delivery agent compound and the Calcitonin gene-related peptide antagonist, 1-Piperidinecarboxamide. […] (BIBN4096BS) in water were prepared. […] The final dosing solutions were prepared by mixing the delivery agent compound with a BIBN4096BS stock solution and diluting to the desired volume (usually 1.0 mL). If necessary, the pH of the mixture was adjusted by the addition of aliquots of aqueous hydrochloric acid solution of an appropriate normality until the final pH of the dosing solution was below 7.0. The final compound amounts per dose were 25 mg/kg of BIBN4096BS, 200 mg/kg of delivery agent compound, in a total volume of 1 mL/kg.
The typical dosing and sampling protocols were as follows. Male Sprague-Dawley rats weighing between 200-250 g were fasted for 24 hours and administered ketamine (44 mg/kg) and chlorpromazine (1.5 mg/kg) 15 minutes prior to dosing. A dosing group of five rats was administered one of the dosing solutions. For oral gavage (PO) dosing, an 11 cm Rusch 8 French catheter was adapted to a 1 mL syringe with a pipette tip. The syringe was filled with dosing solution by drawing the solution through the catheter, which was then wiped dry. […] Plasma BIBN4096BS concentrations were quantified by using a liquid chromatography/mass spectrometry/mass spectrometry assay method using UV detection. […]

| melting point | baseline values of plasma BIBN4096BS [1] | Compound |
| --- | --- | --- |
| 107 to 109 °C | – | CCN(CC)CCNC(=O)c1cc(Cl)ccc1O (as salt: citrate) [Compound 1, N-[2-(diethylamino)ethyl]-5-chloro-2-hydroxybenzamide Mono-citrate] |
| 70 to 73 °C | – | NC(=O)c1ccc(CCCCCCN2CCOCC2)cc1O [Compound 5, 4-(6-morpholin-4-ylhexyl)-salicylamide] |
| 151 to 153 °C | – | COc1ccc(C(=O)NCCCCCCCCN)c(O)c1 [Compound 18, N-(2-hydroxy-4-methoxybenzoyl)-1,8-diaminooctane] |

Continued, compound first:

| Compound | melting point | baseline values of plasma BIBN4096BS [1] |
| --- | --- | --- |
| CCN(CC)CCNC(=O)c1ccccc1O (as salt: citrate) [Compound 3, N-[2-(diethylamino)ethyl]-2-hydroxybenzamide Mono-citrate] | 111 to 113 °C | – |
| NCCCCC(NC(=O)C(Cc1cc(Br)c(O)c(Br)c1)NC(=O)N1CCC(N2Cc3ccccc3NC2=O)CC1)C(=O)N1CCN(c2ccncc2)CC1 (stereo not drawn) [BIBN4096BS, 1-Piperidinecarboxamide. N-[2-[[5-amino-1-[[4-(4-pyridinyl)-1-piperazinyl)carbonyl]pentyl]amino]-1-[(3,5-dibromo-4-hydroxyphenyl)methyl]-2-oxoethyl]-4(1,4-dihydro-2-oxo-3(2H0-quinazolinyl)-.[R-(R*,S*)]] | – | about 10 ng/mL |
| CN(C)c1ccc(CNC(=O)c2ccccc2O)cc1 [Compound 4, N-(4-dimethylaminobenzyl) salicylamide] | 129 to 132 °C | – |
